# Measurements as given in EP2193713A1, “Method for fighting animal pests without damaging pollinating insects” (Bayer CropScience AG, priority 2008, dated 2010).
# Where two headings read alike, the source gives them in different places.
# Test system: Apis mellifera
# Format: in vivo
# Excerpt: Der Test wurde gemäß EPPO (European Plant Protection Organisation) Leitlinie 170 wie folgt durchgeführt:
# Die Mortalität von Arbeiterbienen vor dem Bienenstock wird mittels einer Falle für tote Bienen (dead bee trap) bestimmt. Die Falle besteht aus Maschendraht und ist vor dem Bienenstock angebracht. Einzelne, lebende Bienen können die Maschen des Drahts passieren, der Transport toter Bienen durch die Maschen ist nicht möglich, weswegen tote Bienen sich in der Falle ansammeln. Tabelle 1 (siehe auch Figur 1)
smiles,measurement,setting,value
"O=C1C=C(N(Cc2ccc(Cl)nc2)CC(F)F)CO1 [I-5, 4-{[(6-Chlorpyrid-3-yl)methyl](2,2-difluorethyl)amino}furan-2(5H)-on]",Zahl toter Arbeiterbienen,"75 g a.s./ha, 0 DAA b (15:15 Uhr)",0
same,Zahl toter Arbeiterbienen,"75 g a.s./ha, 0 DAA c (17:15 Uhr)","0,7"
same,Zahl toter Arbeiterbienen,"75 g a.s./ha, 1 DAA",0
same,Zahl toter Arbeiterbienen,"75 g a.s./ha, 2 DAA","0,3"
same,Zahl toter Arbeiterbienen,"75 g a.s./ha, 3 DAA","0,3"
same,Zahl toter Arbeiterbienen,"75 g a.s./ha, 4 DAA","3,7"
same,Zahl toter Arbeiterbienen,"75 g a.s./ha, 5 DAA","0,3"
same,Zahl toter Arbeiterbienen,"75 g a.s./ha, 6 DAA","4,3"
same,Zahl toter Arbeiterbienen,"75 g a.s./ha, 11 DAA",0
same,Zahl toter Arbeiterbienen,"75 g a.s./ha, -3 DAA (before application)","0,3"
same,Zahl toter Arbeiterbienen,"150 g a.s./ha, 0 DAA b (15:15 Uhr)","1,3"
same,Zahl toter Arbeiterbienen,"150 g a.s./ha, 0 DAA c (17:15 Uhr)","0,3"
same,Zahl toter Arbeiterbienen,"150 g a.s./ha, 1 DAA",0
same,Zahl toter Arbeiterbienen,"150 g a.s./ha, 2 DAA",0
same,Zahl toter Arbeiterbienen,"150 g a.s./ha, 3 DAA",0
same,Zahl toter Arbeiterbienen,"150 g a.s./ha, 4 DAA","1,7"
same,Zahl toter Arbeiterbienen,"150 g a.s./ha, 5 DAA","0,7"
same,Zahl toter Arbeiterbienen,"150 g a.s./ha, 6 DAA",2
same,Zahl toter Arbeiterbienen,"150 g a.s./ha, 11 DAA","1,7"
same,Zahl toter Arbeiterbienen,"150 g a.s./ha, -3 DAA (before application)","0,3"
same,Mortalität von Arbeiterbienen vor dem Bienenstock,"result in words, tunnel test, spray, I-5 75 und 150 g a.s./ha, Thiamethoxam 50 g a.s./ha",keine Mortalität
